Experiment in all cases: growth of human tumour cells (NCI), 48 h
In assay [1] the test system is 786-0 renal.
Assay [2] deals with HOP-62 NSCLC.
The test system of assay [3] is KM12 colon.
In assay [4] the test system is MALME-3M melanoma.
Assay [5] deals with MDA-MB-435.
The test system of assay [6] is NCI-H23 lung.
Assay [7] deals with PC-3 prostate.
Assay [8] concerns U251 CNS.
The test system of assay [9] is UACC-62 melanoma.
The test system of assay [10] is BT-549 breast.

Molecules are shown by their SMILES.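 Five compound concentrations were applied to cells in 96-well plates for 48 hours; endpoints were derived by simple linear interpolation of the resulting dose-response curve. GI50 marks 50% less growth. The concentration for full growth arrest is given as TGI.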 Peptide text beside a SMILES is read from it. * marks the point of attachment. OSu = O=C1CCC(=O)N1O*; OBn = c1ccc(CO*)cc1; Bn = c1ccc(C*)cc1 Some results are limits rather than exact numbers.

For `O=C1C=C(NCCc2cc(Br)c(O)c(Br)c2)C(=O)c2[nH]cnc21`, the TGI was > 100 µM in assay [1]; > 100 µM in [2]; > 100 µM in [3]; 30 µM in [4]; 29.3 µM in assay [5]; 50.8 µM in assay [6]. The TGI was > 100 µM in assay [7], > 100 µM in assay [8] and 40 µM in assay [9].
For the compound `CCc1cc2c(oc3c4ccccc4ccc23)c(=O)[nH]1`, the TGI in assay [1], in assay [10], in assay [3], in assay [5], in assay [6] and in assay [7] was > 10 µM in each case. For the same compound, the TGI in assay [8] and in assay [9] was > 10 µM each time.
Consider `Cc1cnc2[nH]c(-c3cccc(Cl)c3)cc(=O)c2c1`, for which the TGI was > 100 µM in [1]; > 100 µM in [10]; 3.45 µM in assay [2]; > 100 µM in assay [3]; > 100 µM in [4]; > 100 µM in assay [6]. Moreover, the TGI in [7] is > 100 µM; in assay [8], 92.2 µM; in assay [9], 63.5 µM.
With `CCCC1C(C#N)(C#N)C(C#N)=C(N)C1(C)C(C)=O` (stereo not given), the TGI in assay [1], in [3], in [4], in [5], in assay [6] and in assay [7] was > 100 µM throughout. Moreover, the TGI in [8] and in assay [9] was > 100 µM throughout.
On to `COc1ccc(/C=C/C(c2cc(OC)c(OC)c(OC)c2)n2cncn2)cc1O` (stereo not given), for which the GI50 in [10] is 0.0712 µM; in assay [3], 0.0405 µM; in [6], 3.47 µM; in [7], 0.036 µM; in [8] it was 0.0506 µM; in assay [9] it was 0.0476 µM. In addition, the TGI in [10] is 37.1 µM; in [3], > 100 µM; in [6], > 100 µM; in [7], > 100 µM; in [8], 56.4 µM; in [9] it was > 100 µM.
Take `CC(CN(C)C)C(=O)/C=C/c1ccc(Cl)c(Cl)c1` (stereo not given): the TGI in assay [1] worked out at 2.01 µM; in assay [10] it was 4.45 µM; in assay [2], 10.4 µM; in assay [3] it was 3.23 µM; in assay [5], 3.33 µM; in [6], 5.11 µM. Also, the TGI in assay [7] stood at 2.25 µM; in [8], 2.51 µM; in assay [9], 3.69 µM.
As to `COc1cc([C@@H]2c3cc4c(cc3[C@@H](Nc3ccc(NC(=O)c5cc(NC(=O)c6cc([N+](=O)[O-])cn6C)cn5C)cc3)[C@H]3COC(=O)[C@H]23)OCO4)cc(OC)c1O`, the TGI was > 39.7 µM in [1]; > 100 µM in assay [10]; 14.4 µM in assay [2]; 61.8 µM in assay [3]; > 100 µM in [4]; > 48.7 µM in assay [6]. The results for the TGI in assay [8] and in assay [9] were 26.2 µM and > 100 µM, respectively.
Regarding `CC(CC(C)(C)[N+](C)(C)C)[N+](C)(C)C` (stereo not given), the TGI in assay [1], in assay [10], in assay [2], in assay [3], in assay [6] and in [7] was > 100 µM throughout. Besides, the TGI in [8] and in [9] was > 100 µM throughout.
Take `O=C1/C(=C2\SCC(=O)N2c2ccccc2)SC(=S)N1c1ccccc1`: the TGI in assay [1], in assay [10], in assay [3], in assay [4], in assay [5] and in assay [6] was > 100 µM throughout. The TGI in assay [7], in [8] and in assay [9] was > 100 µM each time.
`Cc1csc2n(C)c(=O)c3ccccc3[n+]12`: the TGI in assay [1], in assay [10], in assay [2], in [3], in assay [5] and in [6] was > 100 µM in each case. Besides, the TGI in [7], in assay [8] and in assay [9] was > 100 µM throughout.
On to `Clc1cccc(N=C/C=C/Nc2cccc(Cl)c2)c1`, for which the TGI in assay [1] is 37.4 µM; in [10], 33.2 µM; in [2] it was 30.7 µM; in assay [3], 27.1 µM; in [5], 28.9 µM; in [6], 54 µM. Besides, the TGI in [7] stood at 28.4 µM; in assay [8] it was 30.3 µM.
Consider `Cc1nn(C(=O)c2ccc(Cl)cc2)c2c1C(c1ccco1)SC(N)=N2` (stereo not given), for which the TGI in assay [1], in assay [10], in assay [2], in assay [3], in assay [5] and in assay [6] was > 10 µM in each case. The TGI in [7], in [8] and in assay [9] was > 10 µM throughout.
On to `CC(C)CC(NC(=O)C(N)CCC(=O)OCc1ccccc1)C(=O)NC(COCc1ccccc1)C(=O)NC(Cc1ccccc1)C(=O)ON1C(=O)CCC1=O` (stereo not given) (H-E(OBn)LS(Bn)F-OSu; configuration not given here), for which the TGI is > 100 µM in [1]; > 100 µM in [3]; 96.1 µM in assay [4]; > 100 µM in assay [5]; 54.3 µM in assay [6]; 63.2 µM in assay [7]. For the same compound, the values for the TGI in assay [8] and in [9] were 68.5 µM and 70 µM, respectively.
On to `CCOC(=O)O/N=C1/C(c2c(O)[nH]c3ccccc23)=Nc2ccccc21`, for which the TGI in assay [1] came to 28 µM; in [10], 31.7 µM; in [2], 33.9 µM; in [3], 13.8 µM; in [4], 22.1 µM; in [5], 17.3 µM. Besides, the TGI is 25.5 µM in assay [6], > 100 µM in [8] and 23 µM in assay [9].
For `COc1c(Cl)c(Cl)c(OC)c2c1C(=O)C=CC2=O`, the TGI in assay [1] is 31.3 µM; in assay [3] it was 32.2 µM; in assay [4], 29.5 µM; in [6] it was > 100 µM; in assay [8], 40.4 µM; in [9] it was 30.4 µM.
On to `O=C(NNCc1ccccc1O)c1ccccc1O`, for which the TGI in assay [1], in [2], in [3], in [4], in [5] and in assay [6] was > 100 µM throughout. Further, the TGI is > 100 µM in assay [7], > 100 µM in assay [8] and 55.9 µM in assay [9].
As for `CC1CN=C(N(C)C(=O)Nc2ccc(Cl)c(Cl)c2)S1` (stereo not given), the TGI in [1], in [2], in assay [3], in assay [4], in assay [6] and in assay [7] was > 100 µM in each case. In addition, the TGI in assay [8] is > 100 µM.
Take `Clc1ccc(-c2nn3c(C45CC6CC(CC(C6)C4)C5)nnc3s2)cc1`: the TGI in assay [1], in [2], in assay [3], in assay [4], in [5] and in assay [6] was > 100 µM in each case. Besides, the TGI in [7], in [8] and in assay [9] was > 100 µM each time.
Regarding `NC(CNc1ccc(O)cc1)C(=O)O` (stereo not given), the TGI is 30.2 µM in [1]; > 100 µM in assay [2]; > 100 µM in assay [3]; > 100 µM in assay [4]; > 100 µM in assay [8]; 49.4 µM in assay [9].
Consider `c1cn[nH]c1`, for which the TGI in assay [1], in assay [2], in assay [3], in [4], in assay [5] and in assay [6] was > 10 µM throughout. Further, the TGI in assay [7], in assay [8] and in assay [9] was > 10 µM in each case.
For `CCCN(CCC)c1c([N+](=O)[O-])cc(C(=O)N(C)C)cc1[N+](=O)[O-]`, the TGI in [1], in [3], in assay [4], in assay [6] and in assay [8] was > 100 µM each time.
On to `COC(=O)C(N)CCCC(N)C(=O)NC(C)C(=O)NC(CCC(=O)NCCCNc1ccc([N+](=O)[O-])c2[nH]c3ccccc3c(=O)c12)C(N)=O` (stereo not given), for which the TGI in assay [1] was found to be 16.6 µM; in assay [10], 25.7 µM; in assay [2], 22.4 µM; in assay [3] it was 19.1 µM; in assay [5], 17.6 µM; in assay [6], 17.9 µM. Moreover, the TGI was 19.8 µM in [7], 18.4 µM in assay [8] and 10.8 µM in [9].
Turning to `COc1cc(C2C3=C(N=C4SC(C(C)=O)=C(C)N42)c2ccccc2CC3)cc(OC)c1OC` (stereo not given), the TGI in [1], in [10], in [2], in assay [3], in [5] and in assay [6] was > 100 µM each time. The TGI in assay [7], in [8] and in assay [9] was > 100 µM throughout.
In the case of `C/C(=C/c1c(C)[nH]c(=O)[nH]c1=O)C(=O)O`, the TGI in [2] is > 1380 µM; in [3], > 1380 µM; in assay [4] it was > 1380 µM; in assay [6], > 1380 µM; in assay [8], > 1370 µM; in assay [9] it was > 1380 µM.
In the case of `Cc1oc2c(C)c3oc(=O)cc(C)c3cc2c1CN`, the TGI in assay [1] was > 100 µM; in [2] it was > 100 µM; in assay [3] it was > 100 µM; in [4], 86 µM; in assay [6] it was > 100 µM; in [8] it was 74.8 µM. Besides, the TGI in [9] is > 100 µM.
As for `CC(C)C[C@H](NC(=O)[C@H](CCc1ccccc1)NC(=O)c1ccc2ccccc2n1)B(O)O`, the TGI was 0.706 µM in assay [1]; 0.152 µM in [10]; 0.658 µM in [2]; 0.295 µM in [3]; < 0.0123 µM in assay [5]; 0.338 µM in assay [6]. Also, the TGI came out at 1.19 µM in assay [7], 6.11 µM in assay [8] and 1.2 µM in assay [9].
Turning to `CC1=CC(=O)/C(=C/N2CCNC2=S)C(=O)O1`, the TGI in assay [1], in assay [10], in assay [2], in [3], in assay [5] and in assay [6] was > 100 µM in each case. Moreover, the TGI in assay [7], in assay [8] and in [9] was > 100 µM throughout.
`O=[N+]([O-])c1ccc(Cl)cc1N/N=C/c1cccs1`: the TGI in [1], in [10], in assay [2], in [3], in [5] and in [6] was > 100 µM in each case. The TGI in assay [7], in [8] and in [9] was > 100 µM throughout.
As to `COC1=CCC2=C(CCN(C(=O)C3CCC3)C2Cc2ccc(OC)c(O)c2)C1` (stereo not given), the TGI in [1] was 47.4 µM; in [2], > 100 µM; in assay [3], > 100 µM; in [4], > 100 µM; in [5], 10.5 µM; in [6] it was 28.7 µM. In addition, the TGI in assay [7], in [8] and in assay [9] was > 100 µM in each case.
On to `CCCCNCC(O)c1cc(-c2ccc(C(F)(F)F)cc2)nc(-c2ccc(C(F)(F)F)cc2)c1` (stereo not given), for which the GI50 in assay [3] is 1.81 µM; in [7] it was 1.52 µM; in assay [8] it was 1.73 µM; in assay [9], 1.89 µM. The TGI came to 3.6 µM in assay [3], 3.05 µM in assay [7], 3.39 µM in [8] and 3.67 µM in assay [9].
With `Cc1ccc(Nc2ccc(Nc3ccc(C)cc3S(=O)(=O)O)c3c2C(=O)c2ccccc2C3=O)c(S(=O)(=O)O)c1`, the TGI in assay [1], in assay [2], in assay [3], in assay [4], in assay [8] and in assay [9] was > 100 µM throughout.

(Values after PubChem BioAssay (NCI).)
